# Results reported in patent US20160138077A1, “MONITORING AND ASSESSING DEACETYLASE ENZYME ACTIVITY” (THE GENERAL HOSPITAL CORPORATION, priority 2013, published 2016).
# pIC50: −log10 of the molar value.
# Columns and labels:
# Format in all cases: biochemical
# [1] = target: T1, HDAC2 (Homo sapiens, UniProt Q92769); experiment: Caliper microfluidic endpoint IC50 assay
# Description: (§1) HP-1 and HP-2 IC50 values for HDAC1 were determined using the Trypsin-coupled assay as well as the Caliper endpoint assay. HP-1 and HP-2 IC50 values for HDAC2, HDAC3, HDAC6 and HDAC8 were determined with the Caliper endpoint assay.
# (§2) The Caliper microfluidic assay was performed at the Broad Institute exactly as previously described.^5
# (§3) IC50 measurements. HP-1 and HP-2 IC50 values for HDAC1 were determined using the Trypsin-coupled assay as well as the Caliper endpoint assay. HP-1 and HP-2 IC50 values for HDAC2, HDAC3, HDAC6 and HDAC8 were determined with the Caliper endpoint assay (full experimental details in Example 1).
# [2] = target: T2, HDAC8 (Homo sapiens, UniProt Q9BY41); experiment: Caliper microfluidic endpoint IC50 assay
# T2 construct: purchased Cayman Chemicals
# T2 sequence (Q9BY41 1-377): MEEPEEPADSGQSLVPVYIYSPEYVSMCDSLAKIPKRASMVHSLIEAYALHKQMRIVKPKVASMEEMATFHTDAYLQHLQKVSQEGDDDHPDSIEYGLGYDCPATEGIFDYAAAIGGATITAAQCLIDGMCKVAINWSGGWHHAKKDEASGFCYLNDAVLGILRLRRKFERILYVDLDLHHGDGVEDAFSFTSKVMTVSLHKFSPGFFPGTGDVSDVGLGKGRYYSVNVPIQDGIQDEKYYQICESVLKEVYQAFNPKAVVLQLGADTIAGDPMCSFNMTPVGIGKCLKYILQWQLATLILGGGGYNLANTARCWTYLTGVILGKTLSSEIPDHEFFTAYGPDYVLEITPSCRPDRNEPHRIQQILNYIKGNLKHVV
# Description: as §1, §2, §3
# [3] = target: T2, HDAC8; experiment: LCMS characterization of enzymatic deacetylation by HDAC8; conditions: 5 μM probe, 12 hours at 37° C.
# Description: (§4) The enzymatic cleavage of HP-1 and HP-2 was analyzed by performing LCMS assays with HeLa nuclear extract (AnaSpec), HeLa whole cell lysate (Santa Cruz Inc.), and the following purified HDAC isoforms: 1, 2, 3, 6 and 8 (HDAC1, 3 and 8 from Cayman Chemicals and HDAC2 and 6 provided by Dr. Stephen Haggarty). Solutions containing (i) vehicle with DMSO in HDAC buffer, (ii) 5 μM probe in HDAC buffer, (iii) 5 μM probe and HDAC enzyme/HeLa nuclear extract/HeLa whole cell lysate in HDAC buffer, or (iv) 5 μM probe and HDAC enzyme/HeLa nuclear extract/HeLa whole cell lysate pre-incubated with 10 μM SAHA (Provided by Dr. Stephen Haggarty) in HDAC buffer were incubated for 12 hours at 37° C. Following incubation, a 20 μL aliquot of supernatant from each sample was analyzed by LCMS. […] For HP-1, the (M+H)^+ ion for the corresponding aldehyde (8, DHP-1) was detected, which formed following reaction of the initial imine deacetylation product with water. […] The peak area for each detected compound was measured to determine the % deacetylation of each probe. All assay samples were analyzed in triplicate. […]
# (§5) LCMS characterization of HDAC enzymatic action on HP-1 and HP-2. […] Following incubation, an aliquot of supernatant from each sample was analyzed by LCMS. […] The peak area for each detected compound was measured to determine the % deacetylation of each probe (full experimental details in Example 1).
# [4] = target: T1, HDAC2; experiment: LCMS characterization of enzymatic deacetylation by HDAC2; conditions: 5 μM probe, 12 hours at 37° C.
# Description: as §4, §5
# [5] = target: T3, HDAC1 (Homo sapiens, UniProt Q13547); experiment: HDAC1 IC50 (Trypsin-coupled assay and Caliper endpoint assay); conditions: competitive inhibition with a peptide substrate
# T3 construct: purchased Cayman Chemicals
# Description: as §1
# In vitro HDAC 1 end point enzymatic assays were performed in optimized 96-well format as previously described^3,4 with the following modifications. Reactions were performed in volume of 120 uL with 30 ng of full-length, recombinant HDAC1 (BPS Biosciences). TCEP was excluded from the assay buffer. HDAC1 was pre-incubated with varying concentrations of HP-1 or HP-2, or DMSO vehicle for 30 minutes. Fluorophore-conjugated acetyl-lysine tripeptide substrate was added at a concentration equivalent to the substrate Km, 11 uM, and the deacetylation reaction was allowed to run for 45 minutes at RT. […] Fluorescence intensity of the aminomethylcoumarin liberated by deacetylase and trypsin enzymatic activity was monitored at 460 nm using a multilabel plate reader (EnVision, Perkin-Elmer) every 5 minutes until stable, about 25 minutes. […]
# as §3
# T1 sequence (Q92769 whole entry, species assumed): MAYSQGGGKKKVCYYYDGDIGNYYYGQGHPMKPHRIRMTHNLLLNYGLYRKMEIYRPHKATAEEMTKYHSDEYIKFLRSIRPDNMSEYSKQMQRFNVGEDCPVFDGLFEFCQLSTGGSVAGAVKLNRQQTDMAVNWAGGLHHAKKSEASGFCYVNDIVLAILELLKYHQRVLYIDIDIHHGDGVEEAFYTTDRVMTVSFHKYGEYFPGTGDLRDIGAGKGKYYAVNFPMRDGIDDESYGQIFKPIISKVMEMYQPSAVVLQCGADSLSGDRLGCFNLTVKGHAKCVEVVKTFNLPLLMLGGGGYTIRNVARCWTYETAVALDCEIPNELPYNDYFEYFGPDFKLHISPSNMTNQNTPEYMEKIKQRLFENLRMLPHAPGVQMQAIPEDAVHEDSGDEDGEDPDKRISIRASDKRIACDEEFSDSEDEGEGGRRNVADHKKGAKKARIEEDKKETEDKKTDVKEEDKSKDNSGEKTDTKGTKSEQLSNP
# T3 sequence (Q13547 whole entry): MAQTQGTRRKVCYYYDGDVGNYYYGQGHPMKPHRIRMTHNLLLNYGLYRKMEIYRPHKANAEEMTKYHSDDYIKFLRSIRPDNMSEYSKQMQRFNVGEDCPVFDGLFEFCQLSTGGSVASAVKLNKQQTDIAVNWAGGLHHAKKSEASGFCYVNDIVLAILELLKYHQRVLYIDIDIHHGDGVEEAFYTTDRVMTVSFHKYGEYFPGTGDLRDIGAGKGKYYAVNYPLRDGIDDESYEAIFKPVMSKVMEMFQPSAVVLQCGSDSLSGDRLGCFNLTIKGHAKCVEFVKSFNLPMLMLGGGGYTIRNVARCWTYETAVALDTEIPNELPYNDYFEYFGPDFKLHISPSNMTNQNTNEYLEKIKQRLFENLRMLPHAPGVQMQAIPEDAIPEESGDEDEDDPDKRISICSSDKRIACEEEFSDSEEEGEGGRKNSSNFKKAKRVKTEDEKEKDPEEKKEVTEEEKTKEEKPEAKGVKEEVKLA
compound,measurement,setting,value
CC(=O)NC=CCCCCNC(=O)CCCCCNc1ccc([N+](=O)[O-])c2nonc12 [HP-1],pIC50,[1],< 4.15
same,pIC50,[2],< 4.15
same,% HP-1 to DHP-1,"[3]; HDAC8, +SAHA (10 μM)",0%
same,% HP-1 to DHP-1,"[3]; HDAC8, −SAHA",0%
same,% HP-1 to DHP-1,"[4]; HDAC2, +SAHA (10 μM)",0%
same,% HP-1 to DHP-1,"[4]; HDAC2, −SAHA",0%
same,pIC50,"[5]; HDAC1, table does not say whether Trypsin-coupled or Caliper assay",4.45
same,inhibition of HDAC1 (in words),[5],weakly inhibit
